The values below come from patent publication US9393204B2, “Methods and compositions employing bicifadine for treating disability or functional impairment associated with acute pain, chronic pain, or neuropathic disorders” (EBI Life Sciences, Inc., priority 2002, dated 2016).

The nature of data set [1]: Pharmacokinetics of bicifadine SR tablets in acute dental pain study. Particulars: 90 patients. In kind it is in vivo, human. The procedure:
(§1) Healthy adult male and female human subjects who underwent surgical extraction of two or more impacted third molars were enrolled in the study. Following cessation of the local anesthetic effect and onset of pain of at least 40 mm intensity on the 100 mm VAS, patients were randomized to into 1 of the 5 treatment arms (n˜108 per arm) and remained in the clinic for the subsequent 12 hours of the study. The study subjects were randomized to receive either a single dose of: 200 mg, 400 mg or 600 mg bicifadine SR tablets, Tramadol 100 mg, or Placebo. Analgesia ratings were obtained over a 12 h post-dosing period. Rescue medication (acetaminophen) was available, but no analgesia measures were taken after the use of rescue medication by a given patient. A subset of 150 patients provided blood samples at 0.5 hr and hourly intervals following dosing with study medication for the purpose of determining bicifadine levels (n=90).
Plasma time course profiles were determined in a subset of 30 subjects (15 male/15 female) from each treatment group.

For data set [2], the system named is post-operative dental pain. Briefly: Analgesic efficacy of bicifadine SR tablets in post-operative dental pain study. In kind it is in vivo, human. The method, then:
These conclusions are further substantiated by the use of rescue medication by subjects in the Stem et al. acute dental pain studies. Table 5 below summarizes information on the use of rescue medication for patients who took rescue medication among the various treatment groups in the clinical trial reported by Stern et al. (id.) A nonparametric analysis (Median Test) was conducted to evaluate the median latency to rescue medication.
Survival analysis (Kaplan-Meier method, 95% confidence) was performed to compare the treatment groups with regard to time-to-rescue medication. […] The analysis yielded a statistically significant difference among the treatment groups (Log-Rank test, Chi-square=26.9, df=4, P=0.0001).
as §1
The main efficacy endpoints utilized in the overall study (n˜540) were the individual assessment of Pain Severity and Pain Relief scores at a given time point; the derived scores (PID, PRID, SPID, SPRID, TOTPAR), and the global improvement. The last observation carried forward (LOCF) approach was used to estimate change over time for those patients who used rescue medication. For the full study efficacy evaluations, one-way analysis of covariance with baseline pain severity as a covariate was applied. The global tests which included all treatment arms were followed by post-hoc comparisons of the individual treatment arms vs. placebo.
The relationship between mean pain relief ratings (PRR) and mean plasma bicifadine levels was determined at three exemplary plasma level ranges: between 0-500 ng/ml, 500-1000 ng/ml, and >1000 ng/ml, respectively. A clear positive relationship was observed across 3 ranges of bicifadine levels. In particular, bicifadine plasma concentrations in the >1000 ng/ml range were associated with a PR score approximately 3 times as high as plasma concentrations in the 0-500 ng/ml range (p<0.001, Hierarchical Linear Model analysis).
The probability of treatment response as a function of bicifadine blood concentration levels was also determined. Association between the probability of treatment response and bicifadine blood concentration levels was investigated with the widely known Generalized Estimating Equation (GEE) approach. For the purpose of the GEE analyses described here, bicifadine blood concentration was treated as a continuous independent (predictor) variable. Treatment (analgesic) response served as a dichotomous (yes, no) dependent variable in the GEE model. In particular, treatment response for each individual patient for each of the time points was defined as a Pain Relief Rating of 3 or more (range 0-4).

The subject of data set [3] is chronic low back pain (CLBP). The data set can be described thus: Chronic low back pain (CLBP) study, bi-daily dosing. The data set is classed as in vivo, human. The method, then: The present study evaluated the therapeutic efficacy of a reduced dosing regimen employing bicifadine in a bi-daily (BID) dosing protocol to treat chronic low back pain (CLBP). More than 800 study subjects were recruited in this study, and a subset of these subjects was administered 400 mg of a sustained release oral dosage form (formula M; example 15) of bicifadine BID to evaluate the long-term analgesic efficacy of bicifadine for treating CLBP. […] The following outcome measures were assessed in the study:
Inclusion criteria for study subjects, as selected for other studies herein, included the following: Subjects were at least 18 years of age. If subject was female and of childbearing potential, the subject had to have a negative serum pregnancy test during the screening period. Subjects were required to have […] during the screening period.
Other exclusionary criteria in this study included: Low back pain due to acute fracture, infection, severe osteoporosis, malignancy, marked scoliosis, or severe congenital malformation such as spina bifida; Receipt of an epidural injection of corticosteroid in the lower back within 1 month prior to the baseline visit; Use of any antidepressant for pain or sleep (including SSRIs or SNRIs), anti-epileptic, or muscle relaxant, or receipt of transcutaneous electrical nerve stimulation, chiropractic adjustment, or acupuncture within 3 weeks prior to the baseline visit; Use of any antidepressant (including SSRIs or SNRIs) for depression within 3 months prior to the baseline visit; Use of any opioid analgesic or benzodiazepine (or other sedative-hypnotic) within 2 weeks prior to the baseline visit; Use of any NSAID (except aspirin<81 mg per day or <325 mg every other day for cardiac prophylaxis and except ibuprofen) or any non-opioid analgesic (except acetaminophen) within 1 week, or acetaminophen or ibuprofen within 60 hours, prior to the baseline visit; Active malignancy of any type or history of a malignancy within 5 years prior to the first dose of study medication (patients with treated localized basal or squamous cell carcinoma of the skin within 5 years are permitted); Active GI disease (including any GI surgery that, in the Investigator's opinion, would interfere with the absorption of the study medication), or a chronic or acute renal or hepatic disorder; Mental instability, known substance abuse, history of clinically significant depression or alcoholism, or incapacity of being compliant with the requirements of the study; Any clinically significant cardiovascular, renal, endocrine, hepatic, immunologic, respiratory, neurologic, gastrointestinal, psychiatric, or hematologic disease, or any underlying serious medical condition that would preclude patient's participation in the study; and, other standard, relevant exclusion criteria.
Patients who qualified for enrollment into the study completed the PSR test, Roland-Morris Disability Questionnaire, Short Form McGill Pain Questionnaire (SF-MPQ) and the SF-36 quality of life survey at the baseline visit and at various time points throughout the study.
Study subjects were randomized on a 25:6 basis to receive either bicifadine 400 mg BID or SOC treatment, respectively. SOC treatment was provided as any appropriate pharmacological analgesic treatment selected by the investigator based on the subjects' baseline and ongoing presentation. Subjects were permitted to reduce the dose for tolerability reasons, first to bicifadine 300 mg BID, and then, if necessary, to bicifadine 200 mg BID.
Summary statistics, including observed means and standard deviations along with mean change from baseline were summarized by visit for each outcome measure. Incidence of discontinuation due to lack of efficacy and its 95% confidence interval were likewise calculated. The median and its 95% confidence interval and a Kaplan-Meier plot were provided for Time to Discontinuation due to lack of efficacy and other reasons. […]

Another data set concerns neuropathic pain. Briefly: Spinal nerve ligation (Chung) model. The conditions noted are these: in vivo.
The next data set has as its system acute pain. Briefly: Acute pain studies (acute dental pain and bunionectomy pain). The data set is classed as in vivo, human. The conditions noted are these: unit doses of about 200 mg, 400 mg or 600 mg.
In a further data set the test system is acute inflammatory pain. Particulars: animal model of acute inflammatory pain; cited from earlier work.
In data set [4] the test system is acute, nociceptive pain following dental surgery. The conditions noted are these: cited from earlier work.
[5] abbreviates: patients with low back pain and radiating pain.

“Also recorded” adds a separate entry of the source. Counter-ions that a name gives are not always drawn.

Regarding `Cc1ccc(C23CNCC2C3)cc1` (racemic) [Bicifadine HCl, (±)-1-(4-methylphenyl)-3-azabicyclo[3.1.0]hexane hydrochloride], in data set [1], the “relationship between bicifadine dose and AUC” value is reported as “clear dose proportional relationship”. Moreover, the “SPRID-6 and other derived analgesia scores versus placebo” value in data set [2] (200 mg single dose) is “better than placebo on some measures”. The “SPRID-6 and other derived analgesia scores versus placebo” value in data set [2] (400 mg single dose) was “statistically superior to placebo”. Further, in data set [2] (600 mg single dose), the “SPRID-6 and other derived analgesia scores versus placebo” value is “statistically superior to placebo”. In addition, in data set [2] (acute dental pain), the “drug levels associated with significant analgesic efficacy” value was 500 to 1000 ng/mL, the minimally effective dose came out at 200 mg, the “plasma bicifadine levels associated with the greatest pain relief” value was over 1000 ng/mL and the “plasma drug levels not associated with significant analgesic effects” value was at most 500 ng/mL. In addition, the “Odds Ratio of Response (Pain Relief Rating of 3 or more)” value in data set [2] (for an increase of 500 ng/ml in bicifadine blood levels, GEE, p=0.006) stood at 1.59. Further, in data set [2] (p<0.001, Hierarchical Linear Model), the “PR score at plasma concentrations >1000 ng/ml relative to 0-500 ng/ml range” value is “approximately 3 times”. Also, in data set [3] (BID dosing, 4.5 month period, versus SOC), the “therapeutic efficacy from pain relief data (VAS)” value was “comparable to that of standard of care (SOC) treatment”. The improved functional/activity results in data set [3] (BID dosing, versus SOC) was “comparable to those observed among SOC-treated subjects”. For the same compound, the “VAS pain scores compared to placebo” value in data set [3] (baseline RDQ score greater than 17) is listed as “significantly reduced”. For the same compound, the “subjects with at least a 50% reduction in VAS scores, relative to placebo” value in data set [3] (baseline RDQ score greater than 17, hydrochloride) is “at least three times as many; also recorded: roughly three times the percentage”. Besides, in data set [3] (baseline RDQ>17, 400-800 mg/day), the “percentage of subjects with 50% or greater reduction in RDQ scores, relative to placebo (less than 15%)” value is on record as “roughly twice this percentage”. The “disability scores on the RDQ versus placebo” value in data set [3] (baseline RDQ>17, 400-800 mg/day, hydrochloride) was “significant activity for reversing disabilities and enhancing functional/activity performance; also recorded: significantly decreased”. Also, in data set [3] (setting [5]), the “improvement in VAS pain score compared to placebo” value came to 11 mm and the “responsiveness to treatment versus patients with only localized back pain” value is “two times more responsive”. Also, in the data set with neuropathic pain, the “efficacy in the spinal nerve ligation (Chung) model” value is listed as “effective”. Moreover, the “period of analgesic efficacy for effectively treating acute pain” value in the data set with acute pain was “up to 6 hours”. Moreover, the “activity in the Randall-Selitto test” value with acute inflammatory pain is “potent and active”. The “efficacy relative to codeine and tramadol” value in data set [4] was “as effective as codeine and tramadol”.

As to `COc1cccc(C2(O)CCCCC2CN(C)C)c1` (centres unmarked) [tramadol, reference compound], in data set [2] (100 mg, P=0.0001), the “use of rescue medication versus placebo (time-to-rescue, Log-Rank)” value is reported as “significantly less likely to use rescue medication”.
